Data from ChEMBL document CHEMBL4507268 (2021).

Legend:
Conditions in all cases: Compound concentration 1.0 uM
[1] = molecular target: T1, Rhodopsin kinase GRK1 (Homo sapiens) (UniProt Q15835)
T1 sequence (whole entry): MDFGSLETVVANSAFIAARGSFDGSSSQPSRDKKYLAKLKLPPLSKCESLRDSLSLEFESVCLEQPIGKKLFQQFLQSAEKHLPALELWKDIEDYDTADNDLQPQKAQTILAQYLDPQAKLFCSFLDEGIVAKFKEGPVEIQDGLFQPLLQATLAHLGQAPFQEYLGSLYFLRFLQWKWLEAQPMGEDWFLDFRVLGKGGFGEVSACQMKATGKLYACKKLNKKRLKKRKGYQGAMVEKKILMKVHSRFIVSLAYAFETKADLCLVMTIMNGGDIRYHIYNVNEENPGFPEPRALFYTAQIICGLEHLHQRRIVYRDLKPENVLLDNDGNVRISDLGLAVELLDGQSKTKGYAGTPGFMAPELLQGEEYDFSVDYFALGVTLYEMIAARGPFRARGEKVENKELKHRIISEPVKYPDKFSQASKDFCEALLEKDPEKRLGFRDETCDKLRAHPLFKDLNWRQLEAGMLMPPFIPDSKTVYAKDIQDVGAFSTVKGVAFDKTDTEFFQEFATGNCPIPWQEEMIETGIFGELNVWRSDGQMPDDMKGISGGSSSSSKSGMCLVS

[2] = molecular target: T2, Serine/threonine-protein kinase Sgk1 (Homo sapiens) (UniProt O00141)
T2 sequence (whole entry): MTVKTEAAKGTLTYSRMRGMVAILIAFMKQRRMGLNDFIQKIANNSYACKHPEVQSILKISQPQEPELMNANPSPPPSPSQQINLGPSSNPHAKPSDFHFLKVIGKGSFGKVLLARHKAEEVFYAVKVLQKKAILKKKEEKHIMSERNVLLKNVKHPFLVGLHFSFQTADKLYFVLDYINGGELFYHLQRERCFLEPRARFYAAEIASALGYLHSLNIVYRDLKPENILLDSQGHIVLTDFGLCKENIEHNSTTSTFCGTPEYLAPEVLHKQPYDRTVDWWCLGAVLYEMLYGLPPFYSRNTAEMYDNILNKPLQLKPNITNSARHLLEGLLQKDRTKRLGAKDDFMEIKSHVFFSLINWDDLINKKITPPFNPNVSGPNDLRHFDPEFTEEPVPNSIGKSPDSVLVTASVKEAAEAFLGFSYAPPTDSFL

[3] = molecular target: Mitogen-activated protein kinase kinase kinase kinase 4 (Homo sapiens) (UniProt O95819)
Mitogen-activated protein kinase kinase kinase kinase 4 (Homo sapiens), sequence (O95819 2-1239 limits assumed): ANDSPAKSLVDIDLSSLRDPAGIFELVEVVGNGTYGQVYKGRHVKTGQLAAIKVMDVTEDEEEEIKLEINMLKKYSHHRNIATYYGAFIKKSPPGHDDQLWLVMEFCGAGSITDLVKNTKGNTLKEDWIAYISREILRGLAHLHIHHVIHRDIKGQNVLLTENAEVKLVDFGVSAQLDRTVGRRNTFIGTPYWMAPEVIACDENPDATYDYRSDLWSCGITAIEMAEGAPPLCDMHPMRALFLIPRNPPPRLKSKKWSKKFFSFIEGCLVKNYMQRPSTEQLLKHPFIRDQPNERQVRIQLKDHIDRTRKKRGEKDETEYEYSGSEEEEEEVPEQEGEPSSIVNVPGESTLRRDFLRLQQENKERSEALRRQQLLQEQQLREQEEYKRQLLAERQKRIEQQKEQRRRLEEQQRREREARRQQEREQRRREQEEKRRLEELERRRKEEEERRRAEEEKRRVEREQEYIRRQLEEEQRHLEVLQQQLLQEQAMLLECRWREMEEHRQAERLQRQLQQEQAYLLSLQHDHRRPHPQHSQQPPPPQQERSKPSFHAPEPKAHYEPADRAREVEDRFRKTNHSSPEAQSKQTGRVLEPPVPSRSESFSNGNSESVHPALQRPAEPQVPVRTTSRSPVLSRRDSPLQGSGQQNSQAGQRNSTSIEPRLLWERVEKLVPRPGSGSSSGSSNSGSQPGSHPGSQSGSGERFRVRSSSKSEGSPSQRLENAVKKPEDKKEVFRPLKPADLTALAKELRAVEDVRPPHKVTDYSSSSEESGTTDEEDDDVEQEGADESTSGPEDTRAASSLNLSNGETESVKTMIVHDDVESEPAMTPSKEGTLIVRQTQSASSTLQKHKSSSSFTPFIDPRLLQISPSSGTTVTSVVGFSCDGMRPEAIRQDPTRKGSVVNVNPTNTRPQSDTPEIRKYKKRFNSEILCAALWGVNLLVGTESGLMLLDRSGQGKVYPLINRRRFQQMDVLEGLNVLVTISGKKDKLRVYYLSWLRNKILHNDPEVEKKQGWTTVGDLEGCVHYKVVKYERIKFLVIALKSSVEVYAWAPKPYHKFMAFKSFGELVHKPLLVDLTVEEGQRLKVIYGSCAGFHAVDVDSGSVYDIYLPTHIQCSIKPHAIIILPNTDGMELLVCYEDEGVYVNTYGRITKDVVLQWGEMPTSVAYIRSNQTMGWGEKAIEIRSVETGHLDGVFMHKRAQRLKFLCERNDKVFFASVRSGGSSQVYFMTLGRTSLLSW

[4] = molecular target: T3, Myosin-IIIb (Homo sapiens) (UniProt Q8WXR4)
T3 sequence (whole entry): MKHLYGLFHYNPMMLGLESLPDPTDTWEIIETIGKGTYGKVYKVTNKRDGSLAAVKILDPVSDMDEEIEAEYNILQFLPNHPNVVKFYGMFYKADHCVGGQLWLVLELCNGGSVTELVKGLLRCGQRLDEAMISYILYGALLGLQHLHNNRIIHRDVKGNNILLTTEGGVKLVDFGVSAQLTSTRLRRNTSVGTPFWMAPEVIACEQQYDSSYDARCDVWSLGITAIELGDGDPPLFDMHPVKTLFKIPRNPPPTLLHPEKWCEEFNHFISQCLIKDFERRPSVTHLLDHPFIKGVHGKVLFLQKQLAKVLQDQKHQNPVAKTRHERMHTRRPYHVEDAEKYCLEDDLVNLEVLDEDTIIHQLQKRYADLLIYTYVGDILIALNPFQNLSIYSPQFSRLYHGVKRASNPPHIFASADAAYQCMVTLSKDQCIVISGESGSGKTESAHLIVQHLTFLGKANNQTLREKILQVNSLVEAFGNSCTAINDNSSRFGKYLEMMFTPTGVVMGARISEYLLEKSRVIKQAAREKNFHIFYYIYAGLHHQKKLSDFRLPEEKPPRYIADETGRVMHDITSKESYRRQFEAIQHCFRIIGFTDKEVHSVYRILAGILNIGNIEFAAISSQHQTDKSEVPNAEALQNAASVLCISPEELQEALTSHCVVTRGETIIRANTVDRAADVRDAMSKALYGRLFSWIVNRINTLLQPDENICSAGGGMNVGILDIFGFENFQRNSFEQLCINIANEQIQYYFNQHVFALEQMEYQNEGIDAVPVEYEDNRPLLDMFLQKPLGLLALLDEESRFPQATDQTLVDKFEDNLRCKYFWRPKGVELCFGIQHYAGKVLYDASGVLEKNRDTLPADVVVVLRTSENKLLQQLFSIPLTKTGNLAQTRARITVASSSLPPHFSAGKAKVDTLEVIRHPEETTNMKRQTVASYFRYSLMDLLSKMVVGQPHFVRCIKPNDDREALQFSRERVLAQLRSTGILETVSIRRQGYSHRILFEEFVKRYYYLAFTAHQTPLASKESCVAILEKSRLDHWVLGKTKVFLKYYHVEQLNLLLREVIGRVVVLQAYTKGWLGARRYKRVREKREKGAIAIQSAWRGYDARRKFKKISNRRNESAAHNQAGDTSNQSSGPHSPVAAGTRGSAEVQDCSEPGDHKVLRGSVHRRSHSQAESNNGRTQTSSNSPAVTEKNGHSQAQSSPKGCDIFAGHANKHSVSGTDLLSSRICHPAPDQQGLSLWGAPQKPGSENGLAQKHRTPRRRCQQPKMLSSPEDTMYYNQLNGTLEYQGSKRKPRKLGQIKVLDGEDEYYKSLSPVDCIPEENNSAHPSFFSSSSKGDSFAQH

[5] = molecular target: Receptor tyrosine-protein kinase erbB-2 (Homo sapiens) (UniProt P04626)
Receptor tyrosine-protein kinase erbB-2 (Homo sapiens), sequence (P04626 whole entry): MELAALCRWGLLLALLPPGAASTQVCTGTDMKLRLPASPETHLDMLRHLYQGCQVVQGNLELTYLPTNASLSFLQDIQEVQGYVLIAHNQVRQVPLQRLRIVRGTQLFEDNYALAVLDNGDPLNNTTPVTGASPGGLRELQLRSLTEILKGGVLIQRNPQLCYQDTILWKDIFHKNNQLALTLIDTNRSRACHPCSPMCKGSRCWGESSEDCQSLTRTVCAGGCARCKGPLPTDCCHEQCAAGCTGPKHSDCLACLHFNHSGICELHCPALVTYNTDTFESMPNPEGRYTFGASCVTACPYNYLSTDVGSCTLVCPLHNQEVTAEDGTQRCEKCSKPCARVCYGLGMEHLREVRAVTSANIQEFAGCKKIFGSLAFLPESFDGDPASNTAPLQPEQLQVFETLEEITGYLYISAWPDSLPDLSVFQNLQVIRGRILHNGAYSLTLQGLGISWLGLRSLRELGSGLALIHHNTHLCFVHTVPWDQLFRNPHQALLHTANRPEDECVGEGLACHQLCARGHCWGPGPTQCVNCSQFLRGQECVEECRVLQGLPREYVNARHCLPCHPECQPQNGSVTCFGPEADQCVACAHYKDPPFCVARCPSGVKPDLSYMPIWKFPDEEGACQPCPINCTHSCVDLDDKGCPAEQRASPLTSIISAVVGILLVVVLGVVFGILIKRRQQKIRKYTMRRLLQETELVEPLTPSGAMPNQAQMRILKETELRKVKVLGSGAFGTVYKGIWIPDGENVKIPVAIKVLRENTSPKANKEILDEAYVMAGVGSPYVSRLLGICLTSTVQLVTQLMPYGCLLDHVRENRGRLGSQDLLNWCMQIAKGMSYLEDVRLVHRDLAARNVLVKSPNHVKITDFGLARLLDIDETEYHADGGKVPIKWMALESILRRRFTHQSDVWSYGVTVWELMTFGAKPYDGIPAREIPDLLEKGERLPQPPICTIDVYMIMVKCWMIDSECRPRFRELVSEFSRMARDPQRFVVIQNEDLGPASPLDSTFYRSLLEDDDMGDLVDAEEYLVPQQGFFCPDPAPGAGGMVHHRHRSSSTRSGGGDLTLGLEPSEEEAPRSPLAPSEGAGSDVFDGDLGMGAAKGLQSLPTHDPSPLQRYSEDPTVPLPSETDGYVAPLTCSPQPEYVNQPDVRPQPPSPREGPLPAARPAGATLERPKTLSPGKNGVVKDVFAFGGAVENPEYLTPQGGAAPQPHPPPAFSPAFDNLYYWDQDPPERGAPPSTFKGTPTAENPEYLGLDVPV

[6] = molecular target: T4, Testis-specific serine/threonine-protein kinase 3 (Homo sapiens) (UniProt Q96PN8)
T4 sequence (whole entry): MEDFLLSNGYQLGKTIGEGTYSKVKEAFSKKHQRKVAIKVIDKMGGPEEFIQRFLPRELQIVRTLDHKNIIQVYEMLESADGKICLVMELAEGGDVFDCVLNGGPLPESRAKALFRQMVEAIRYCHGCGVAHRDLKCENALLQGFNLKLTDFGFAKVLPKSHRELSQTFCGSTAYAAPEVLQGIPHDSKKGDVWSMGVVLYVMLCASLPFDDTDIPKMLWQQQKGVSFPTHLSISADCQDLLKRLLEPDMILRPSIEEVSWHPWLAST

Measured: % residual kinase activity

CN1CCN(c2cnc3c(C4CCN(C(=O)c5ccc(OC(F)(F)F)cc5N)CC4)ncnc3c2)CC1 [BAY-885]
inactive: [1] 117% | [2] 113% | [3] 99% | [4] 111% | [5] 96% | [6] 108%
